Laboratory results: patent publication US8012949B2, “Bisphosphonate compounds and methods with enhanced potency for multiple targets including FPPS, GGPPS, and DPPS” (The Board of Trustees of the University of Illinois, priority 2004, dated 2011)
Read-outs that look alike come from different tables or passages of the source.

How the values were obtained:
[1] = test system: NCI-H460 (lung large cell); assay: NCI-H460 cell growth inhibition (MTT); assay type: cell-based, human; settings: Table 1, experimental; for IC50: Homo sapiens, NCI-H460, read-out: NCI-H460 pIC50 (converted)
From the text: (§1) Cell Growth Inhibition Assays. […] A broth microdilution method was used to determine IC50 values for growth inhibition by each bisphosphonate. […] NBPs were typically initially dissolved in H2O (0.01 M) while NNBPs were typically dissolved in DMSO (0.01 M).
(§2) GraphPad PRISM® version 4.0 software for windows (GraphPad Software Inc., San Diego, Calif., www.graphpad.com) was used to fit the data to a rectangular hyperbolic function: I=(ImaxC)/(IC50+C); […]

[2] = test system: SF-268 (central nervous system glioblastoma); assay: SF-268 cell growth inhibition (MTT); assay type: cell-based, human; settings: Table 1, experimental; for IC50: Homo sapiens, SF-268, read-out: SF-268 pIC50 (converted)
From the text: as §1, §2

Vγ2Vδ2 T cells = assay: γδ T cell activation (TNF-α release and proliferation); assay type: cell-based, human; settings: Table 2, -log10(value, M); for EC50: Homo sapiens, T-cell, read-out: γδ T Cell Avg pED50 (converted)
Protocol: γδ T Cell Assays. Vγ2Vδ2 T cell TNF-α release and proliferation were performed basically as described previously^1. Briefly, to measure bioactivity for Vγ2Vδ2 T cells, the CD4^+ JN.24, CD4^+ HF.2, CD8αα^+ 12G12, or the CD4^−8^− HD.108 Vγ2Vδ2 T cell clones were stimulated with phosphoantigens in the presence of CP.EBV (an EBV transformed B cell line) for CD4^+ clones or Va-2 (a transformed fibroblast) for CD8αα^+ and CD4^−8^− clones. CP.EBV and Va-2 were fixed with 0.05% glutaraldehyde (EM grade, Sigma, Mo.) for use as APCs. […] Curve fitting minima for each experiment (e.g. TNF-α release from JN.24 cells) were determined using the Global Fitting technique, as implemented in Prism 4.0. Curve fitting maxima were optimized for each individual compound without the use of any constraints.

[3] = test system: MCF-7 (breast adenocarcinoma); assay: MCF-7 cell growth inhibition (MTT), incl. FOH/GGOH rescue; assay type: cell-based, human; settings: for IC50: Homo sapiens, MCF7
From the text: as §1
GraphPad PRISM® version 4.0 software for windows (GraphPad Software Inc., San Diego, Calif., www.graphpad.com) was used to fit the data to a rectangular hyperbolic function: I=(ImaxC)/(IC50+C);
For the “rescue” experiments, stock solutions of FOH or GGOH were prepared (in ethanol) and the requisite amounts added to the incubation media to produce a fixed 20 μM concentration.

human DPPS = biological target: T1, human DPPS (Homo sapiens, UniProt Q5T2R2); assay: human DPPS enzyme inhibition; assay type: biochemical; settings: Table 1, experimental; for Ki: read-out: DPPS_pKi (converted)
T1 construct: made in house
T1 sequence (Q5T2R2 1-415): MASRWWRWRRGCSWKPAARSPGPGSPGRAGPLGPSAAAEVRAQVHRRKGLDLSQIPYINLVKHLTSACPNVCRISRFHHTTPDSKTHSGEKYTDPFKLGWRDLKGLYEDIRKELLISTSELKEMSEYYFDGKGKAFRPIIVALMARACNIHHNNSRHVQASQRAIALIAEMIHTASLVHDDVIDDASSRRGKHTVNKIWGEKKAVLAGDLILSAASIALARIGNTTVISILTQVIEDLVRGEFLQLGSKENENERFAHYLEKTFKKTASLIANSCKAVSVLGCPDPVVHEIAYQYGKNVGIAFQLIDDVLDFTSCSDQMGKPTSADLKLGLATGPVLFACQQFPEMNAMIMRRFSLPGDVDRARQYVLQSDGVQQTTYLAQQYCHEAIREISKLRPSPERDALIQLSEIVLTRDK
T1 sequence (Q86YH6 1-399 partner): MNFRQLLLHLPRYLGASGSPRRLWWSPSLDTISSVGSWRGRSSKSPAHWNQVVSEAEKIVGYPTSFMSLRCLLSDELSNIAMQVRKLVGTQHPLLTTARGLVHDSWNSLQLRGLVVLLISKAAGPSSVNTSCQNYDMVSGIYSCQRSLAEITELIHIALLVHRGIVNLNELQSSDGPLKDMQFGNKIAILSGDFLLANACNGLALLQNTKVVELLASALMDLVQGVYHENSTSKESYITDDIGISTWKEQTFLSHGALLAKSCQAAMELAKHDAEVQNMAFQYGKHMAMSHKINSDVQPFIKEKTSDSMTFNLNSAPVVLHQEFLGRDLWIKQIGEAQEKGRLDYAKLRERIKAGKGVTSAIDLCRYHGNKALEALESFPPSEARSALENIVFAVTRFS
From the text: (§3) To test our polypharmaceutical hypothesis, we expressed three enzymes: human FPPS, GGPPS and DPPS, and tested each for their inhibition by a series of bisphosphonates.

human FPPS = biological target: T2, human FPPS (Homo sapiens, UniProt P14324); assay: human FPPS enzyme inhibition; assay type: biochemical; settings: Table 1, experimental; for Ki: read-out: FPPS pKi (converted)
T2 construct: made in house
T2 sequence (P14324 1-419): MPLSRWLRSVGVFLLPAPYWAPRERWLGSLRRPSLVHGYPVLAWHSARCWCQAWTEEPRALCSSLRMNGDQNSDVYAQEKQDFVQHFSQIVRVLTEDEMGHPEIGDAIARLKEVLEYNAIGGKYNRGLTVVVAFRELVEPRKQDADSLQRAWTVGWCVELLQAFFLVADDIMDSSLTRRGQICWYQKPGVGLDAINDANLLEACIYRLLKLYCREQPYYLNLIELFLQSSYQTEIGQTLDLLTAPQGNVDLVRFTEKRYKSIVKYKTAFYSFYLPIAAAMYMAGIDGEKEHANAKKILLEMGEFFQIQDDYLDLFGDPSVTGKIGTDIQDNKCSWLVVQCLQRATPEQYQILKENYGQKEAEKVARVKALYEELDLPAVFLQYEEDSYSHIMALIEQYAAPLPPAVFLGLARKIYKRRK
From the text: as §3

[4] = biological target: T3, human recombinant geranylgeranyl diphosphate synthase (hGGPPS) (Homo sapiens, UniProt O95749); assay: Human recombinant GGPPS inhibition (radiometric assay); assay type: biochemical; settings: Table 1, experimental; read-out: GGPPS pKi (converted)
T3 construct: made in house
T3 sequence (O95749 1-300): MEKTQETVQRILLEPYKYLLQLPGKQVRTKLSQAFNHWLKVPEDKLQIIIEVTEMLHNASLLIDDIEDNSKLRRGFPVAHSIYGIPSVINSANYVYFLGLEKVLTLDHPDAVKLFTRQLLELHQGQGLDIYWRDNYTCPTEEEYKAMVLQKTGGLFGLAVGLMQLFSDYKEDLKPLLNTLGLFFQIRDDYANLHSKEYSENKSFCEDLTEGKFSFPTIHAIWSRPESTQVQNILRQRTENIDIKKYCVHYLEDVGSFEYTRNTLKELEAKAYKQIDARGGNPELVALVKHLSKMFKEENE
Protocol: as §3
Human recombinant GGPPS inhibition. The purification of human recombinant geranylgeranyl diphosphate synthase (hGGPPS) followed the protocol reported previously^2. GGPPS inhibition by bisphosphonates was determined using the radiometric assay reported previously^2 with slight modification. […] IPP and incubated at 37° C. for 20 min. The reaction was terminated by the addition of 75 μL of HCl/MeOH. Following a second 20 min incubation at 37° C. to effectively hydrolyze the allylic pyrophosphates, the reaction mixtures were neutralized by the addition of 75 μL of 6 N NaOH and extracted with 500 μL of hexane. 200 μL of the organic phase was transferred to a scintillation vial for counting. The IC50 values were obtained by fitting the data to the dose-response curve in Origin 6.1 (OriginLab Corp., Northampton, Mass., www.OriginLab.com).

[5] = Table 1, experimental, read-out: MCF-7 pIC50 (converted)
[6] = Table 2, -log10(value, M), read-out: MCF-7 Cell pIC50 (converted)

SMILES | NCI-H460 pIC50 (M) [1] [M] | SF-268 pIC50 (M) [2] [M] | γδ T Cell Avg pED50 (M) (Vγ2Vδ2 T cells) | MCF-7 pIC50 (M) ([3]; Table 1, experimental) | MCF-7 Cell pIC50 (M) ([3]; Table 2, -log10(value, M)) | DPPS pKi (human DPPS) | FPPS pKi (M) (human FPPS) | IC50 [1] [nM] | IC50 [2] [nM] | EC50 (Vγ2Vδ2 T cells) [nM] | Ki [4] [nM] | IC50 [3, 5] [nM] | IC50 [3, 6] [nM] | Ki (human DPPS) [nM] | Ki (human FPPS) [nM]
O=P(O)(O)C(O)(Cc1cccnc1)P(=O)(O)O [BPH-2] | 3.7 | 3.9 | 4.29 | 3.8 | 3.13 | 7.3 | – | – | – | – | – | – | – | – | –
O=P([O-])(O)C(O)(C[n+]1ccccc1)P(=O)(O)O (stereo not shown) [BPH-278] | 4.1 | 4.3 | 4.20 | 4.1 | 4.10 | 7.2 | 8.6 | – | – | – | – | – | – | – | –
O=P([O-])(O)C(O)(C[n+]1cccc(-c2ccccc2)c1)P(=O)(O)O (stereo not shown) [BPH-300] | 4.5 | 4.5 | – | 4.4 | – | 6.9 | 8.3 | – | – | – | – | – | – | – | –
Cc1ccc[n+](CC(P(=O)([O-])O)P(=O)(O)O)c1 (stereo not shown) [BPH-474] | 4.2 | 4.1 | 3.85 | 4.1 | 4.42 | 6.9 | 8.4 | – | – | – | – | – | – | – | –
O=P([O-])(O)C(C[n+]1cccc(Br)c1)P(=O)(O)O (stereo not shown) [BPH-483] | 4.1 | 4.0 | 4.04 | 4.0 | 3.84 | 6.8 | 8.5 | – | – | – | – | – | – | – | –
CCCCCCCCc1ccc[n+](CC(P(=O)([O-])O)P(=O)(O)O)c1 (stereo not shown) [BPH-637] | – | – | – | – | – | – | – | 2000 | 1260 | 12600 | 39.8 | 251 | 219 | 501 | –
CCCCCCCCCCc1ccc[n+](CC(P(=O)([O-])O)P(=O)(O)O)c1 (stereo not shown) [BPH-638] | – | – | – | – | – | – | – | 158 | 200 | 1700 | – | 158 | 170 | 501 | 15.8
CCCCCCCC[S+](C)CC(P(=O)([O-])O)P(=O)(O)O (stereo not shown) [BPH-683] | – | – | – | – | – | – | – | 15800 | 12600 | 107000 | – | 20000 | 6760 | 63.1 | –
CCC[S+](C)CC(P(=O)([O-])O)P(=O)(O)O (stereo not shown) [BPH-685] | 3.9 | 3.7 | 3.81 | 3.6 | 4.02 | 6.7 | – | – | – | – | – | – | – | – | –
CCCCCCCCCCCCCC[S+](C)CC(P(=O)([O-])O)P(=O)(O)O (stereo not shown) [BPH-694] | 6.0 | 5.9 | 6.20 | 4.9 | 6.69 | 6.6 | 7.1 | – | – | – | – | – | – | – | –
CCCCCCCCc1cc[n+](CC(P(=O)([O-])O)P(=O)(O)O)cc1 (stereo not shown) [BPH-717] | – | – | – | – | – | – | – | 631 | 631 | – | – | 501 | – | 79.4 | 20
CCCCCCCOc1ccc[n+](CC(P(=O)([O-])O)P(=O)(O)O)c1 (stereo not shown) [BPH-722] | – | – | – | – | – | – | – | 501 | 1000 | 27500 | 63.1 | 2510 | 468 | 6.31 | –
CCOCCOCCCc1ccc[n+](CC(P(=O)([O-])O)P(=O)(O)O)c1 (stereo not shown) [BPH-727] | 3.5 | 3.7 | 3.77 | 3.5 | 3.62 | 6.8 | 8.2 | – | – | – | – | – | – | – | –
CC(C)CCCC(C)CCOc1ccc[n+](CC(P(=O)([O-])O)P(=O)(O)O)c1 (stereo not shown) [BPH-728] | 4.6 | 4.9 | 5.28 | 4.5 | 5.59 | 6.3 | 6.8 | – | – | – | – | – | – | – | –
